Measured values reported in patent US20100273750A1, “SEROTONIN RECEPTOR ANTAGONISTS FOR TREATING ARTHRITIS” (IMPERIAL INNOVATIONS LIMITED, priority 2007, published 2010).
“Also recorded” adds a separate entry of the source. Structures can show the parent of a compound that is named as a salt.

What was measured:
[1] = system: TLR4 ligand LPS induced TNF; experiment: LPS induced TNF production in primary human macrophages (ELISA); type: cell-based; details: 30 minutes preincubation
Method: (§1) Macrophages or RA synovial membrane cell cultures were stimulated with 10 ng/ml chloroform-extracted LPS, 10 ng/ml Pam3, 10 ng/ml Flagellin, 10 ng/ml Malp-2, 20 μg/ml poly IC, 2 μM CpG (human/mouse) or 1 μg/ml R-848 in complete media for 6 h. Supernatants from RA cultures were harvested after 24 hours. All reagents other than LPS were free from LPS contamination as assessed using the limulus amebocyte lysate (LAL) assay from Cambrex (USA).
(§2) Sandwich ELISAs were employed to measure TNF, (Pharmingen, UK). IP-10 (R&D, USA) and IL-1β (Bioscource. USA). Absorbance was read on a spectrophotometric ELISA plate reader (Labsystems Multiscan Biochromic) and analyzed using Ascent software V2.6 (Thermo Labsystems, Cambridge, United Kingdom). All results are expressed as the mean cytokine concentration±SD obtained from triplicate cultures per condition.
(§3) RA synovial membrane cells were isolated from patients undergoing joint replacement surgery as previously described (Foxwell et al., Proc. Natl. Acad. Sci. USA 95, 8211-8215, 1998). All patients gave written informed consent and the study was approved by the local ethics committee. Immediately after isolation, cells were used for mRNA analysis, stained by FACS or cultured at 1×10^5 cells/well in 96-well tissue culture plates (Falcon, UK) in RPMI 1640 containing 10% (v/v) FBS and 100 U/ml penicillin/streptomycin. Primary human synovial fibroblasts were cultured as described previously (Butler et al. Eur. Cytokine Netw. 5:441-8, 1994). Peripheral blood monocytes were isolated and cultured as previously described (Foxwell et al. Proc. Natl. Acad. Sci. USA 95, 8211-8215, 1998). Macrophages were derived from monocytes after differentiation for 4 days with 100 ng/ml M-CSF (PeproTech, UK). The mouse macrophage cell line RAW 264.7 was maintained in Dulbecco's modified Eagle's medium supplemented with 10% fetal bovine serum.
Primary human macrophages, murine RAW 264.7 cells and synovial fibroblasts were incubated with 30 μg/ml mianserine hydrochloride for 30 minutes and then stimulated for 6 hours with TLR ligands (R-848, Pam3, LPS, flagellin, malp-2, poly IC or CpG).

[2] = system: RA synovial membrane cultures; experiment: Spontaneous cytokine release from RA synovial membrane cultures (ELISA); type: cell-based, human
[3] = system: TLR7/8 ligand R-848 induced TNF; experiment: R-848 induced TNF production in primary human macrophages (ELISA); details: 1 μg/ml R-848 for 6 hours
[4] = system: TLR3 ligand poly IC induced IP-10; experiment: Poly IC induced IP-10 production in human macrophages (ELISA); type: cell-based
Method: as §1, §2, §3
Primary human macrophages were incubated with 5 μg/ml of GBR12909, 5 μg/ml of clotrimazole, 5 μg/ml of Propidium iodide (PI), 30 μg/ml mianserine hydrochloride and 30 μg/ml promazine hydrochloride for 30 minutes and then stimulated for 6 hours with the TLR4 ligand LPS (FIG. 7A), with R848 a TLR7/8 ligand (FIG. 7, Graph B), or with poly IC a TLR3 ligand (FIG. 7C). Supernatants were collected and measured for TNF or IP-10.

[5] = system: rheumatoid synovial membrane cultures; experiment: TNF production in rheumatoid synovial membrane cultures stimulated with TLR ligands (ELISA); type: cell-based, human
Method: as §1, §2, §3
To check if these TLRs were functional in synovial membrane cultures, cells were stimulated with the appropriate TLR ligands at the time of seeding the cells (FIG. 5, Graph C). […]

[6] = system: RA synovial membrane cultures; experiment: Spontaneous cytokine release from RA synovial membrane cultures (ELISA); type: cell-based, human; details: 10 μg/ml, 20 μg/ml and 30 μg/ml
Method: as §1, with “hours.” for “hours. All reagents other than LPS were free from LPS contamination as assessed using the limulus amebocyte lysate (LAL) assay from Cambrex (USA).”
as §2, §3
Rheumatoid arthritis synovial membrane cells were cultured for 24 hours in the presence of media alone or media containing 30 μg/ml mianserine hydrochloride. Supernatants were harvested and levels of cytokines (A) TNF (n=16) were measured by ELISA. […] A students paired t-test was used to analyse the data.

[7] = 5 μg/ml, 30 minutes preincubation
[8] = 30 μg/ml, 10 ng/ml LPS for 6 hours
[9] = dose dependant, best inhibition at 100 μM, 24 hours, n=4

CC[N+](C)(CC)CCC[n+]1c(-c2ccccc2)c2cc(N)ccc2c2ccc(N)cc21.[I-].[I-] [Propidium iodide]
inhibition of LPS induced TNF production ([1]; 5 μg/ml, LPS for 6 hours): None of the drugs tested were able to inhibit
inhibition of spontaneous TNF production ([2]; 5 μg/ml, 24 hours): did not lead to a significant decrease
inhibition of R-848 induced TNF production [3, 7]: only the serotonin receptor antagonists (mianserine hydrochloride and promazine hydrochloride) were able to suppress
inhibition of Poly IC induced IP-10 production ([4]; 5 μg/ml, poly IC for 6 hours): able to inhibit

CCOCc1nc2c(N)nc3ccccc3c2n1CC(C)(C)O [R-848, resiquimod]
TNF production increased on stimulation ([5]; 1 μg/ml, TLR7/8 ligand, P<0.0001, n=11): 515%±76

Clc1ccccc1C(c1ccccc1)(c1ccccc1)n1ccnc1 [clotrimazole, Clotrimazole]
inhibition of LPS induced TNF production ([1]; 5 μg/ml, LPS for 6 hours): None of the drugs tested were able to inhibit
inhibition of spontaneous TNF production ([2]; 5 μg/ml, 24 hours): did not lead to a significant decrease
inhibition of R-848 induced TNF production [3, 7]: only the serotonin receptor antagonists (mianserine hydrochloride and promazine hydrochloride) were able to suppress
inhibition of Poly IC induced IP-10 production ([4]; 5 μg/ml, poly IC for 6 hours): able to inhibit

CC(C)Cn1cnc2c(N)nc3ccccc3c21 [imiquimod]
stimulation of cytokine release over spontaneous levels ([5]; 1 μg/ml, TLR7 ligand): unable to stimulate further release of cytokines

CN1C[C@H](CNC(=O)OCc2ccccc2)C[C@@H]2c3cccc4c3c(cn4C)C[C@H]21 [metergoline]
inhibition of spontaneous TNF production ([2]; 10 μg/ml, 24 hours): able to inhibit
inhibition of R-848 induced TNF production ([3]; 10 μg/ml, 30 minutes preincubation): able to inhibit

CSc1ccc2c(c1)C(N1CCN(C)CC1)Cc1ccccc1S2 (stereo not shown) [methiothepin]
inhibition of spontaneous TNF production ([2]; 5 μg/ml, 24 hours): able to inhibit
inhibition of R-848 induced TNF production [3, 7]: able to inhibit

Cc1nccn1CC1CCc2c(c3ccccc3n2C)C1=O (stereo not shown) [ondansetron]
inhibition of LPS induced TNF production [1, 8]: not
inhibition of spontaneous TNF production ([2]; 20 μg/ml, 24 hours): able to inhibit; also recorded: significant inhibition
inhibition of R-848 induced TNF production ([3]; 30 μg/ml, 30 minutes preincubation): significantly inhibits
inhibition of R-848 induced TNF production ([3]; 30 μg/ml, 30 minutes preincubation, listed as Ondansetron): able to inhibit
inhibition of R-848 induced TNF production, dose dependence ([3]; 5, 10 or 20 μg/ml, 30 minutes preincubation): dose dependant inhibition

CN(C)CCCN1c2ccccc2Sc2ccccc21 [promazine hydrochloride]
inhibition of TNF, dose dependence [6]: dose dependently inhibited
inhibition of LPS induced TNF production [1, 8]: None of the drugs tested were able to inhibit
inhibition of R-848 induced TNF production ([3]; 30 μg/ml, 30 minutes preincubation, hydrochloride): able to suppress
inhibition of R-848 induced TNF production ([3]; 30 μg/ml, 30 minutes preincubation, listed as Promazine hydrochloride, hydrochloride): decreased TNF production
inhibition of Poly IC induced IP-10 production ([4]; 30 μg/ml, 20 μg/ml poly IC for 6 hours, hydrochloride): inhibits TLR3 induced signalling; also recorded: able to inhibit

Cc1nc2sccn2c(=O)c1CCN1CCC(=C(c2ccc(F)cc2)c2ccc(F)cc2)CC1 [ritanserin]
inhibition of spontaneous TNF production ([2]; 5 μg/ml, 24 hours): able to inhibit
inhibition of R-848 induced TNF production [3, 7]: able to inhibit

NCCc1c[nH]c2ccc(O)cc12 [serotonin (5-HT), 5-hydroxytryptamine]
inhibition of R-848 induced TNF production (TLR8 signaling) ([3]; 10 or 100 μM, 30 minute preincubation): not inhibited

Chloroquine diphosphate salt
inhibition of spontaneous IL-1 release [2, 9]: inhibited
inhibition of spontaneous TNF release [2, 9]: inhibited

Poly IC
TNF production increased on stimulation ([5]; 20 μg/ml, TLR3 ligand, P=0.0002, n=12): 334%±60

ketanserine tartrate
inhibition of TNF, dose dependence ([2]; 10 μM, 100 μM): dose dependently inhibited
